{"source": "paper PMC8632000", "about": "(Frontiers in Pharmacology, 2021)", "key": {"[1]": {"assay": "Population pharmacokinetic model (NONMEM) of vancomycin plasma concentration-time data in surgical patients", "protocol": "Only patients who underwent a major surgical procedure and were above the age of 18 years were included in the study. […] The dose selection and duration of infusion were at the discretion of the attending medical practitioners. […] Patient demographics, including age, weight, sex, type of disease, and serum creatinine (SCR) were recorded from patient files, and creatinine clearance (CRCL) was calculated using the Cockcroft and Gault equation ([Cockcroft and Gault, 1976]).\nBriefly, separation was carried out using a C18 column (125 mm × 4.6 mm, 5 µm) with UV detection at 205 nm. The mobile phase was a combination of buffer (50 mM ammonium dihydrogen phosphate) at pH 2.2 and acetonitrile (88:12 v/v). The method was linear over the concentration range of 0.25–60 mg/l.\nThe population pharmacokinetic model was developed using nonlinear mixed effect modeling (NONMEM version 7.4.4) software provided by Icon Clinical Research LLC, New York, NY, USA, along with the Perl-speaks-NONMEM (PsN) toolkit ([Lindbom et al., 2005]). The execution and management of the model as well as report generation were performed with the aid of Pirana (Certara, Princeton, NJ, USA) ([Keizer et al., 2011]). The actual process of modeling began with the development of one-compartment and two-compartment base models using the first-order conditional estimation method with interaction (FOCE-I) to obtain pharmacokinetic parameter estimates without any covariates. […] The exponential random-effect model was used to describe the between-subject variability (BSV) on pharmacokinetic (PK) parameters, while additive, proportional, and combined residual error models were tested to describe the residual error between the observed and predicted concentrations of vancomycin.\nThe influence of different covariates (age, sex, WT, SeCR, and CRCL) on CL and Vd was determined by stepwise covariate modeling (SCM) in which the covariates were included in the model by forward inclusion and backward elimination processes. […]"}, "[2]": {"conditions": "cited from earlier work"}, "[3]": {"conditions": "median of 1,000 bootstrap estimates"}}, "data": [{"smiles": "CN[C@H](CC(C)C)C(=O)N[C@H]1C(=O)N[C@@H](CC(N)=O)C(=O)N[C@H]2C(=O)N[C@H]3C(=O)N[C@H](C(=O)N[C@H](C(=O)O)c4cc(O)cc(O)c4-c4cc3ccc4O)[C@H](O)c3ccc(c(Cl)c3)Oc3cc2cc(c3O[C@@H]2O[C@H](CO)[C@@H](O)[C@H](O)[C@H]2O[C@H]2C[C@](C)(N)[C@H](O)[C@H](C)O2)Oc2ccc(cc2Cl)[C@H]1O", "note": "[Vancomycin]", "values": [{"measurement": "CL, bootstrap estimate", "setting": "[1]; [3]", "result": 2.46, "unit": "L/h"}, {"measurement": "V, bootstrap estimate", "setting": "[1]; [3]", "result": 22.7, "unit": "L"}, {"measurement": "V (volume of distribution), final estimate", "setting": "[1]; one-compartment final model, 58 patients", "result": 22.6, "unit": "L"}, {"measurement": "Vancomycin CL in obese patients", "setting": "[2]; obese patients, ref Blouin et al., 1982, Bauer et al., 1998, Adane et al., 2015", "result": "6.54 to 11.8", "unit": "L/h"}, {"measurement": "Reported CL values in other studies", "setting": "[2]; ref Buelga et al., 2005, Llopis-Salvia and Jiménez-Torres, 2006, Staatz et al., Thomson et al., 2009, Tanaka et al., 2010, Udy et al., 2013, Escobar et al., 2014, Usman et al., 2018", "result": "1.08 to 2.99", "unit": "L/h"}, {"measurement": "Vd, lower end of reported range", "setting": "[2]; ref Escobar et al., 2014", "result": 11.8, "unit": "L"}, {"measurement": "Vd, upper end of reported range", "setting": "[2]; ref Lin et al., 2016", "result": 101, "unit": "L"}, {"measurement": "Fraction of drug excreted via renal elimination", "setting": "[2]; ref Matzke et al., 1984, Rodvold et al., 1988, Ducharme et al., 1994", "result": "80%–90%"}]}]}
